From patent US10086039B2, “Lamin A, an activator of longevity/anti-aging SIRT1 protein” (THE UNIVERSITY OF HONG KONG, priority 2012, dated 2018)

Legend:
[1] = target: T1, rhSIRT1 association with NM (Homo sapiens, UniProt Q96EB6); assay: Association of rhSIRT1 with insoluble NM fraction in test tube; type: binding; settings: NM from wild-type and Zmpste24−/− cells, resveratrol 10 μM
T1 sequence (Q96EB6 1-747): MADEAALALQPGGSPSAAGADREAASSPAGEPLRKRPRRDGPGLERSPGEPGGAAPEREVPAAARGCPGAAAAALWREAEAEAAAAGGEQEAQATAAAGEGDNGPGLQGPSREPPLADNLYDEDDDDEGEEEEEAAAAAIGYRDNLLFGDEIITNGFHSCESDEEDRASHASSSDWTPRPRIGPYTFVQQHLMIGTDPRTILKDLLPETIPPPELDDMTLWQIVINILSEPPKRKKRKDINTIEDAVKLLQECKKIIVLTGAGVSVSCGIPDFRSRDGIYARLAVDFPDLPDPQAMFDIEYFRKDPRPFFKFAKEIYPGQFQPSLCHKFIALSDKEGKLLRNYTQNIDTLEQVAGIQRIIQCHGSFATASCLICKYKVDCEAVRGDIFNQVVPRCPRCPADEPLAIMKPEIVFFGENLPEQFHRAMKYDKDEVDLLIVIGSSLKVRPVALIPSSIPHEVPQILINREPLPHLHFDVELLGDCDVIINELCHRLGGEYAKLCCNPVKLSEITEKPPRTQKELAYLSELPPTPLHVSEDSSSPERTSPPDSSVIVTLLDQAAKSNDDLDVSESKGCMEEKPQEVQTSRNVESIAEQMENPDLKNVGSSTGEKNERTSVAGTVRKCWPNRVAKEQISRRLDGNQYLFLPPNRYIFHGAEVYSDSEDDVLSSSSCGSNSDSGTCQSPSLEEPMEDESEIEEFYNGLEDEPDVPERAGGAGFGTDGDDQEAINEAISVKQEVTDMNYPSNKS

Zmpste24−/− BMSCs = assay: BMSC colony-forming assay in vitro; type: cell-based, mouse
From the text: Bone marrow stromal cells were isolated and cultured according to modified protocol (Enumeration and Expansion of Mouse Mesenchymal Progenitor Cells Using MESENCUILT®, Stemcell Technologies, Canada). Briefly, bone marrow cells were flushed out from femurs and tibias with α-MEM (Invitrogen, Carlsbad, Calif., USA) supplemented with 20% FBS, and plated in petri dishes. Non-adherent cells were removed on day 3 and medium was replaced every 3 days. BMSC colonies were fixed with methanol and stained with crystal violet solution on the indicated day. For magnetic enrichment, CD11b-positive population was removed using a MIDIMACS™ magnetic cell sorting kit (Miltenyi Biotec, Bergisch Gladbach, Germany), following the manufacturer's instructions. Colonies containing more than 50 cells were counted. BMSC colony forming efficiency was calculated as number of colonies formed by […] bone marrow nucleated cells.

Zmpste24−/− mice = assay: HSC population in bone marrow of treated Zmpste24−/− mice (FACS); type: in vivo, mouse; settings: resveratrol 20 μg/ml in drinking water
Method: Zmpste24^-/- mice have been described previously ([…] et al., 2002). Mouse experimentation was performed in accordance with the guidelines of the Committee on the Use of Live Animals in Teaching and Research (CULATR) at the University of Hong Kong. New-born Zmpste24^-/- mice and wild-type controls were fed with resveratrol (20 μg/ml) or N-acetyl Cysteine (1 mg/ml) in drinking water. The survival of resveratrol-treated, NAC-treated, or vehicle-treated Zmpste24^-/- mice was recorded and their body weight was monitored weekly. The trabecular bone organization and bone mineral density were determined by micro-CT. The survival rate was analyzed by Kaplan-Meier method and statistical comparison was performed by Log-rank (Mantel-Cox) Test. To analyze hematopoietic stem cells, mononucleated cells were collected by flushing femurs and tibias with staining medium (HBSS supplemented with 2% FBS) and stained with biotin-coupled lineage markers, Biotin-Flt3, PE-Sca-1, APC-c-Kit, and then SAv-PerCP. FACS profile analyses were performed using a BD FACSCalibur.

AMPK = AMPK activation at low doses of resveratrol; type: cell-based; settings: low doses (2-10 μM)
Method: It was shown that low doses of resveratrol (≤25 μM) activates AMPK in a SIRT1-dependent manner, while high doses (≥50 μM) activate AMPK independent of SIRT1 (Baur et al., 2006; Price et al., 2012; Sun et al., 2007). In the present invention, low doses (2-10 μM) of resveratrol were used and activation of AMPK was not observed; therefore, it is postulated that the beneficial effects of resveratrol on BMSCs are primarily attributable to the activation of SIRT1.

SIRT1 = target: T2, SIRT1 (Homo sapiens, UniProt Q96EB6); assay: SIRT1 deacetylation assay on native full-length acetyl FLAG-p53 (Western blotting, anti-acetyl lysine); type: biochemical; design: purchased Biomol (Hamburg, Germany)
T2 sequence (Q96EB6 1-747): T1 sequence (Q96EB6 1-747)
Method: SIRT1 deacetylation assay on fluorophore-conjugated synthetic p53 peptide was performed with SIRT1 Fluorimetric Drug Discovery Kit (Biomol, Hamburg, Germany) according to the manufactory's instruction. Cells were fractionated as described above except that protease inhibitors were NOT included and the nuclear matrix fraction was suspended into the assay buffer provided by the supplier. Different cell fractions or recombinant human lamin A (rhLamin A, Diatheva, Italy) were added in the reaction mix of SIRT1 Fluorimetric Drug Discovery Kit, incubated for 20 min at 37° C., and then the reaction was stopped and fluorescent signal was detected. SIRT1 deacetylase activity on native target was assayed using SIRT1 assay Kit from Sigma (USA). Constructs encoding FLAG-p53 and HA-p300 were co-transfected into HEK293 cells; FLAG-p53 was immunoprecipitated by anti-FLAG M2 Agarose (Sigma) followed by elution with FLAG peptide (Sigma). Purified acetyl FLAG-p53 was incubated with recombinant human SIRT1 (rhSIRT1) and NAD+ for 30 min at 37° C., in the presence or absence of rhLamin A or resveratrol. The acetylation level of FLAG-p53 was determined by Western blotting with pan anti acetyl lysine antibodies.
To further test the effect of rhLamin A on the native target of SIRT1, acetyl p53 was purified by anti-FLAG immunoprecipitation in HEK293 cells ectopically expressing FLAG-p53 and p300, and SIRT1 deacetylation assay was performed as described in Materials and Methods.

`Oc1ccc(C=Cc2cc(O)cc(O)c2)cc1` [resveratrol] was tested, and the “association of rhSIRT1 with NM” value [1] was “enhanced the association”, the “rescue effect on colony-forming capacity” value (Zmpste24−/− BMSCs; Zmpste24−/− BMSCs with SIRT1 knocked down) was “attenuated” and the colony-forming capacity (Zmpste24−/− BMSCs; Zmpste24−/− BMSCs, 2 μM and 10 μM, dose-dependent) was “enhanced the colony-forming capacity”. The “early decline in HSCs” value (Zmpste24−/− mice) was “rescued”, the “activation of AMPK” value (AMPK) was “not observed” and the “activation of SIRT1 deacetylase activity, native full-length FLAG-p53 as substrate” value (SIRT1; in the presence of rhLamin A) was “activated SIRT1 in a lamin A dose-dependent manner”. The “activation of SIRT1 deacetylase activity, native full-length FLAG-p53 as substrate” value (SIRT1; without rhLamin A) was “does not directly activate”.
